According to patent publication US11253589B2, “Modulation of the immune response” (priority 2007, dated 2022):
Entries after “also recorded” stand apart in the source; their conditions may differ.

Legend:
CD11c+ and CD11b+ cells = assay: MHC class II expression on CD11c+ and CD11b+ cells by FACS; format: in vivo; settings: ITE 200 mg/mouse ip daily or TCDD 1 mg/mouse ip on day 0; spleens 10 days after MOG35-55/CFA
Excerpt: AHR is known to be expressed by antigen presenting cells (APC) such as dendritic cells (CD11c^+) and macrophages (CD11b^+) (Vorderstrasse and Kerkvliet, Toxicol Appl Pharmacol. 171, 117 (2001); Laupeze et al., J Immunol. 168, 2652 (2002); Hayashi et al., Carcinogenesis. 16, 1403 (1995); Komura et al., Mol Cell Biochem. 226, 107 (2001)). To analyze the effects that AHR activation by ITE might have on different APC populations, which can potentially influence the generation of Teff and Treg cells, we studied the effect of ITE and TCDD treatment on MHC class II expression by as dendritic cells (CD11c^+) and macrophages (CD11b). C57BL/6 mice were treated with ITE (200 mg/mouse administered ip, daily) or TCDD (1 mg/mouse administered ip on day 0) and immunized them with […] of MOG35-55 in CFA. Spleens were prepared 10 days later and […] expression was investigated on CD11b^+ and CD11c^+ cells by FACS.

C57BL/6 mice [1] = assay: EAE induced by immunization with MOG35-55 in CFA; format: in vivo, mouse; design: EAE severity: dose or concentration left out as unconfirmed
C57BL/6 mice [2] = assay: EAE in recipient mice after transfer of CD4+ T cells from treated mice; format: in vivo, mouse
Excerpt: To identify the mechanism responsible for the decreased proliferation to MOG35-55 in TCDD-treated animals shown in FIG. 4D, the CD4^+CD25^+ Treg population was depleted with magnetic beads. […] The control of the pathogenic T cell response was mediated by CD4^+CD25^+ Treg, their depletion abrogated the protective effect of the transferred cells (P<0.001, two-way ANOVA, n=4; FIG. 5C).
To confirm that the protective effect of TCDD on EAE was Treg mediated we depleted the natural Treg with antibodies to CD25 prior to TCDD treatment. […] This protective effect was lost when CD4^+CD25^+ T cells were depleted, see FIG. 5h and Table 5.
The control of the pathogenic T cell response was mediated by CD4^+CD25^+ Treg, their depletion from the transferred population abrogated the protective effect of the transferred cells. Thus, the Treg induced by the activation of AHR with ITE inhibit the progression of EAE.

[3] = in vivo; cited from earlier work
[4] = system: CD4+IL-17+ and CD4+IFNg+ T cells; assay: Frequency of CD4+IL-17+ and CD4+IFNg+ T cells by FACS; format: in vivo, mouse
Description: In addition, cells were stimulated in culture medium containing 100 μg/ml MOG35-55 for 2 days or with PMA (50 ng/ml) (Sigma-Aldrich) and ionomycin ([…]) (Calbiochem, San Diego, Calif., USA) for 4 hours, Golgistop (BD Biosciences) was added to the culture during the last 4 hours. After staining of surface markers, cells were fixed and permeabilized using Cytofix/Cytoperm and Perm/Wash buffer from BD Biosciences according to the manufacturer's instructions. All antibodies to cytokines (IFN-gamma, IL-17, IL-10) including the corresponding isotype controls were obtained from BD Biosciences. Cells were incubated (1:100) at 25° C. for 20 min and washed twice in Perm/Wash before analysis. Data were acquired on a FACSCalibur (BD Biosciences) and analyzed with FlowJo software (Tree Star, Ashland, Oreg., USA).
To confirm the suppressive effects of AHR activation on the generation of T cells secreting IFNg and IL17, IFNg^+ and IL17^+ CD4^+ T cells were quantified by FACS in the draining lymph nodes ten days after footpad immunization and intraperitoneal administration of ITE ([…]).

[5] = system: MOG35-55-specific Treg and Teff; assay: MOG35-55-specific Treg and Teff by MHC class II tetramer FACS; format: in vivo, mouse; settings: Foxp3gfp mice, ITE 200 mg/mice intraperitoneal daily
Description: To investigate the effect of AHR activation by ITE on the frequency of MOG35-55 specific Treg and effector T cells (Teff), Foxp3^gpf knock in mice were immunized with MOG35-55/CFA, treated daily with intreaperitoneal ITE ([…]) and MOG35-55-specific Treg (CD4^+ FoxP3:GFP^+) and Teff (CD4^+ FoxP3:GFP^−) were analyzed by FACS using recombinant MHC class II tetramers containing […] or the control peptide TMEV70-86.

[6] = system: IgG serum antibodies to myelin antigens; assay: Antigen microarray of serum antibody response to myelin; format: in vivo, mouse; settings: TCDD-treated mice that did not develop EAE, FDR < 0.05
Description: The antigens listed in Table 1 were spotted onto Epoxy slides (TeleChem, Sunnyvale, Calif., USA) as described (Quintana et al., Proc Natl Acad Sci USA 101 Suppl 2, 14615-21 (2004)). Antigens were spotted in replicates of 6, the microarrays were blocked for 1 h at 37° C. with 1% bovine serum albumin, and incubated for 2 hours at 37° C. with a 1:100 dilution of the test serum in blocking buffer. The arrays were then washed and incubated for 45 min at 37° C. with goat anti-mouse IgG Cy3-conjugated detection antibodies (Jackson ImmunoResearch Labs, West Grove, Pa., USA). The arrays were scanned with a ScanArray 4000X scanner (GSI Luminomics, Billerica, Mass., USA). Antigen reactivity was defined by the mean intensity of binding to the replicates of that antigen on the microarray. Raw data were normalized and analyzed using the GeneSpring software (Silicon Genetics, Redwood City, Calif., USA) with the non-parametric Wilcoxon-Mann-Whitney test, using the Benjamini and Hochberg method with a false discovery rate (FDR) of 0.05 to determine significance. The samples were clustered using a pairwise average linkage algorithm based on Spearman's rank correlation as a distance measure. […]

mouse Foxp3 locus = assay: Zebrafish microinjected with renilla-tagged mouse Foxp3 BAC; format: in vivo; settings: total zebrafish lysates six days after microinjection, increasing amounts of TCDD
Description: A modified zebrafish based screening assay was established by microinjecting fertilized zebrafish eggs with a BAC construct encoding the complete mouse Foxp3 locus, with a renilla reporter inserted after the Foxp3 methionine start codon (ATG). Six days after microinjection, renilla activity was determined in total zebrafish lysates.

[7] = ITE 200 μg/mouse daily, either orally or intraperitoneally
[8] = ITE 200 mg/mice intraperitoneal, draining lymph nodes ten days after footpad immunization
[9] = C57BL/6 (WT) mice, TCDD 1 μg/mouse, Table 4
[10] = recipients of 5 × 10^6 CD4+ T cells from TCDD treated mice
[11] = recipients of 5 × 10^6 CD4+CD25- T cells from TCDD treated mice
[12] = draining lymph nodes of TCDD-treated mice

COC(=O)c1csc(C(=O)c2c[nH]c3ccccc23)n1 [ITE, 2-(1′H-indole-3′-carbonyl)-thiazole-4-carboxylic acid methyl ester]
CD11b+ MHC class II expression (CD11c+ and CD11b+ cells): significant increase | CD11c+ MHC class II expression (CD11c+ and CD11b+ cells): significant decrease | protective effects on EAE (C57BL/6 mice [1]; ITE 200 μg/mouse at weekly intervals instead of daily): complete loss of tis protective effects on EAE; also recorded: fails to suppress EAE development | EAE clinical score (C57BL/6 mice [1]; [7]): significant reduction of EAE clinical score | EAE development (delay) (C57BL/6 mice [1]; [7]): significant delay on EAE development | EAE severity (C57BL/6 mice [1]; administered on a daily basis): significant reduction on EAE severity | protection from EAE by transfer of CD4+ T cells (C57BL/6 mice [2]; CD4+ T cells from mice treated with oral or intraperitoneal ITE): Protection from EAE could be transferred | toxic effects [3]: do not display the toxic effects | frequency of CD4+IFNg+ T cells [4, 8]: decrease in the frequency | frequency of CD4+IL17+ T cells [4, 8]: decrease in the frequency | frequency of MOG35-55-specific Teff [5]: decrease in the frequency | frequency of MOG35-55-specific Treg [5]: concomitant increase in the frequency

Clc1cc2c(cc1Cl)Oc1cc(Cl)c(Cl)cc1O2 [TCDD, 2,3,7,8 tetrachlorodibenzo-p-dioxin]
IgG serum antibodies to myelin antigens [6]: significant decrease in IgG serum antibodies to 97 myelin antigens | CD11b+ MHC class II expression (CD11c+ and CD11b+ cells): significant increase | CD11c+ MHC class II expression (CD11c+ and CD11b+ cells): significant decrease | EAE development (C57BL/6 mice [1]; AHR-ligand loaded nanoparticles, 45 femtomoles weekly starting at day 0): complete suppression of EAE | Mean day of onset (Mean ± SD) (C57BL/6 mice [1]; [9]): 21 days | Mean maximum score (mean ± SD) (C57BL/6 mice [1]; [9]): 0.2 ± 0.6 | histopathological signs of EAE (cellular infiltrate, demyelination, axonal loss in spinal cord) (C57BL/6 mice [1]; IP administered TCDD, day 19 after EAE induction): reduced the histopathological signs of EAE; also recorded: inhibits CNS inflammation, demyelination and axonal loss | Incidence (positive/total) (C57BL/6 mice [1]; TCDD 0.01 μg per mouse ip): 7/7 | Mean day of onset (Mean ± standard deviation (SD)) (C57BL/6 mice [1]; TCDD 0.01 μg per mouse ip): 14.1 ± 2.9 days | Mean maximum score (mean ± SD) (C57BL/6 mice [1]; TCDD 0.01 μg per mouse ip, EAE score 0-5): 2.7 ± 0.6 | Mean day of onset (Mean ± standard deviation (SD)) (C57BL/6 mice [1]; TCDD 0.1 μg per mouse ip): 17.0 ± 1.2 days | Mean maximum score (mean ± SD) (C57BL/6 mice [1]; TCDD 0.1 μg per mouse ip, EAE score 0-5): 3.1 ± 0.5 | Mean day of onset (Mean ± standard deviation (SD)) (C57BL/6 mice [1]; TCDD 1 μg per mouse ip, then MOG35-55/CFA): 21.8 ± 1.5 days | Mean maximum score (mean ± SD) (C57BL/6 mice [1]; TCDD 1 μg per mouse ip, then MOG35-55/CFA, EAE score 0-5): 0.2 ± 0.6 | clinical signs of EAE (C57BL/6 mice [1]; TCDD 1 μg/mouse ip): markedly inhibited the clinical signs of EAE | EAE development (C57BL/6 mice [1]; TCDD 1 μg/mouse orally, one day before EAE induction): prevented EAE development | onset of EAE (C57BL/6 mice [1]; natural Treg depleted with antibodies to CD25 prior to TCDD treatment): significant delay in the onset of EAE | renilla luciferase activity (murine Foxp3 expression) (mouse Foxp3 locus): increased in the presence of TCDD in a dose-dependent manner | Mean day of onset (Mean ± SD) (C57BL/6 mice [2]; [10]): 13.3 ± 0.6 days | Mean maximum score (mean ± SD) (C57BL/6 mice [2]; [10]): 0.7 ± 0.8 | Mean day of onset (Mean ± SD) (C57BL/6 mice [2]; [11]): 11.0 ± 0.0 days | Mean maximum score (mean ± SD) (C57BL/6 mice [2]; [11]): 2.6 ± 1.8 | development of EAE (C57BL/6 mice [2]; transfer of 5×10^6 CD4+ T cells from TCDD-treated mice): significantly inhibited the development of EAE | frequency of CD4+IFNg+ T cells [4, 12]: decrease in the frequency | frequency of CD4+IL-17 T cells [4, 12]: decrease in the frequency | IL-17+CD4+ T cells in the draining lymph nodes ([4]; natural Treg depleted with antibodies to CD25 prior to TCDD treatment, day 18): significant reduction; also recorded: significant decrease in the frequency
